Common to all, as to experiment: NCI-60 cell line screen, 48 h
Test [1] has as its system HCT-15 colon.
Test [2] has as its system EKVX NSCLC.
Test [3] concerns DU-145 prostate.
Test [4] has as its system K-562 leukemia.
Test [5] has as its system HCC-2998 colon.
For test [6], the system named is UO-31 renal.
The test system of test [7] is OVCAR-3 ovarian.
Test [8] deals with HL-60(TB) leukemia.
For test [9], the system named is OVCAR-8 ovarian.
Test [10] concerns RPMI-8226 leukemia.

“And” between values parts separate entries of the source, which are not always exact repeats. Identical values can stand only once.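 Results reflect a 48-hour exposure of cells in 96-well plates to compound at five concentrations. Abbreviation: GI50, concentration required for 50% inhibition of growth. TGI: total growth inhibition.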

As for `COc1ccc2nc3ccccc3c(NCc3ccc(F)cc3)c2c1`, the GI50 is 1.54 µM in test [1]; 2.16 µM in [2]; 2.09 µM in test [3]; 1.52 µM in [4]; 1 µM in [5]; 0.962 µM in [6]. For the same molecule, the GI50 in [7] was 2.25 µM; in test [8], 1.17 µM; in [9] it was 2 µM; in test [10], 1.24 µM. Further, the TGI turned out to be 5.23 µM in test [1]; 7.95 µM in test [2]; 7.04 µM in [3]; 6.94 µM in [4]; 2.1 µM in test [5]; 3.96 µM in [6]. Moreover, the TGI in test [7] was 7.81 µM; in test [8], 2.8 µM; in test [9], 13.6 µM; in [10], 3.06 µM.
For `Cc1cc(N[C@@H]2CCC[C@H](Nc3ccnc4cc(Cl)ccc34)C2)nc(N2CCCCCC2)n1`, the GI50 in test [1] was 1.1 µM; in test [2], 1.62 µM; in [3], 2.99 µM; in [4] it was 0.359 µM; in test [5], 1.72 µM; in test [6], 1.13 µM. Also, the GI50 is 1.91 µM in test [7], 1.7 µM in test [8], 2.51 µM in test [9] and 1.64 µM in test [10]. The TGI in test [1] was 2.62 µM; in test [2], 3.84 µM; in test [3], 10.6 µM; in [4], 1.69 µM; in test [5], 3.29 µM; in test [6] it was 2.4 µM. Further, the TGI was found to be 4.06 µM in test [7], 3.47 µM in [8], 6.1 µM in test [9] and 4.71 µM in test [10].
`CNCCOC(=O)/C=C1\CC[C@H]2[C@@H]([C@@H](O)C(=O)[C@@H]3[C@]2(C)CC[C@H](O)[C@]3(C)C(=O)OC)[C@H]1C`: the GI50 in test [1] was 0.608 µM; in test [2], 0.229 µM; in [3], 0.188 µM; in [4] it was 0.412 µM; in test [5] it was 1.35 µM; in test [6] it was 0.297 µM. Further, the GI50 was 0.228 µM in [7], 0.244 µM in test [8], 0.329 µM in test [9] and 0.454 µM in test [10]. Besides, the TGI amounted to 2.55 µM in test [1]; 0.539 µM in test [2]; 0.371 µM in test [3]; 2.37 µM in test [4]; 3.63 µM in test [5]; 1.1 µM in [6]. Also, the TGI came to 0.49 µM in [7], 0.687 µM in test [8], 1.11 µM in test [9] and 2.65 µM in test [10].
On to `O=C(Nc1cc(C(F)(F)F)cc(C(F)(F)F)c1)c1cc(Cl)ccc1O`, for which the GI50 is 0.271 µM and 0.276 µM in test [1]; 0.295 µM and 0.288 µM in [2]; 0.345 µM and 0.347 µM in test [3]; 0.189 µM and 0.161 µM in [4]; 0.307 µM and 0.349 µM in [5]; 0.246 µM and 0.224 µM in [6]. For the same molecule, the GI50 is 0.239 µM and 0.23 µM in [7]; 0.201 µM and 0.239 µM in test [8]; 0.278 µM and 0.285 µM in [9]; 0.116 µM and 0.155 µM in [10]. In addition, the TGI is 1.62 µM and 1.49 µM in [1]; > 3.58 µM and 3.43 µM in [2]; > 5.23 µM and 10.8 µM in [3]; over 61.3 µM in test [4]; 1.33 µM and 3.63 µM in test [5]; 0.856 µM and 0.811 µM in test [6]. The TGI in [7] is > 3.54 µM and 9.93 µM; in [8], 1.69 µM and 0.641 µM; in test [9], 3.85 µM and 6.08 µM; in test [10], 0.578 µM and 0.713 µM.
On to `CCOC(=O)Nc1cc2c(c(N)n1)N=C(c1ccccc1)CO2`, for which the GI50 was 0.0894 µM in test [1]; 0.409 µM in test [2]; 0.194 µM in test [3]; 0.0336 µM in test [4]; 0.414 µM in test [5]; 0.459 µM in test [6]. Further, the GI50 in test [7] was 0.0345 µM; in [8] it was 0.0303 µM; in test [9] it was 0.418 µM; in [10], 0.126 µM. Also, the TGI was over 100 µM in [1]; over 46 µM in test [2]; 1.44 µM in test [3]; 34 µM in [4]; 8.96 µM in test [5]; 6.53 µM in test [6]. Moreover, the results for the TGI in test [7] and in test [9] were 0.109 µM and over 32.9 µM, respectively.
On to `CN(C)C1CCN(C(=O)c2ccc(NC(=O)Nc3ccc(-c4nc(N5CCOCC5)c5cccn5n4)cc3)cc2)CC1`, for which the GI50 is 2.77 µM in test [1]; 0.0702 µM in [2]; 0.0335 µM in test [3]; 0.224 µM in test [4]; 0.043 µM in test [5]; 1.15 µM in test [6]. In addition, the GI50 is 0.0412 µM in test [7], 0.105 µM in test [8], 0.116 µM in test [9] and 0.275 µM in test [10]. The TGI in [1] is over 50.7 µM; in [2], 3.46 µM; in test [3], 12.6 µM; in [4], 9.66 µM; in test [5], 5.86 µM; in test [6], 10.1 µM. Moreover, the TGI in test [7] is 1.12 µM; in test [8] it was 1.76 µM; in test [9], 15.5 µM; in test [10] it was 1.88 µM.

The values are drawn from PubChem BioAssay (NCI).
